Results reported in US20230025067A1, “SOLID LOW FOAMING IN DISSOLUTION AND LOW PH ALL-PURPOSE CLEANER AND DISINFECTANT COMPOSITIONS” (Reckitt Benckiser LLC, priority 2021, published 2023).

Columns and labels:
[1] = Tableting and stability of R&D formulations with other citric acid grades; type: physicochemical; conditions: R&D formulations similar to Formula E1
germ = experiment: R&D germ kill testing of aqueous citric acid solutions; type: cell-based; conditions: aqueous solutions containing 2.5% w/v
Description: As discussed above, lemon juice contains 5-8% citric acid, amongst other potentially disinfecting ingredients like malic acid, ascorbic acid, and essential oils.

Staphyloccocus aureus = conditions: 1 mg/mL solution in a 20% dimethyl sulfoxide water solution; cited from earlier work

Row | Structure (SMILES) | suitability for tablet formulation (hygroscopicity, tableting) [1] | germ kill results (germ) | activity against Staphyloccocus aureus (Staphyloccocus aureus)
1 | O=C(O)CC(O)(CC(=O)O)C(=O)O [Citric acid anhydrous, citric acid anhydrous] | too hygroscopic for use in a tablet formulation |  | 
2 | O=C(O)CC(O)(CC(=O)O)C(=O)O [citric acid] |  | did not produce consistent or satisfactory germ kill results | inactive
